Structures are written as SMILES.

One assay concerns SK-N-MC cells. As to the kind of experiment: Inhibition of cellular 59Fe uptake from 59Fe2-Tf. It is filed as cell-based, human. Conditions: chelator 25 µM. The procedure: (§1) The iron transport protein, Tf (Sigma-Aldrich), was labeled with ^59Fe (PerkinElmer Life and Analytical Sciences, Boston, MA) to form ^59Fe2-Tf using standard methods, [7]. Unbound ^59Fe was removed by passage through a Sephadex G25 column and was followed by exhaustive dialysis, [7].
The ability of the chelators to prevent the cellular uptake of ^59Fe from ^59Fe2-Tf was examined using standard methods, [14], [17], [18], [50]. A monolayer of SK-N-MC cells was incubated with medium containing ^59Fe2-Tf (0.75 µM) and the chelator (25 µM) for 3 h at 37°C. The medium was then removed and the cells were washed four times with ice-cold PBS. The cells were then incubated for 30 min at 4°C with the general protease, Pronase (1 mg/mL; Sigma-Aldrich), to remove membrane-bound ^59Fe. The cells were removed using a plastic spatula and centrifuged at 14,000 rpm/1 min to separate internalized from membrane-bound ^59Fe. The cell pellet was resuspended in 1 mL of PBS and the internalized ^59Fe was measured on a γ-scintillation counter. Internalized ^59Fe uptake was calculated as a percentage of the control (medium alone). Again, the novel ligands were compared to DFO and Dp44mT as their ability to inhibit cellular ^59Fe uptake has been extensively characterized using SK-N-MC cells, [14], [17], [18], [50].
Figure 8 Effect of (A) series 1, (B) series 2, (C) series 3, (D) series 4, (E) series 5 and (F) series 6 chelators, relative to the controls DFO and Dp44mT, on ^59Fe uptake from ^59Fe-transferrin by SK-N-MC cells. Cells were incubated for 3 h/37°C with ^59Fe-transferrin (0.75 µM) in the presence or absence of the chelators (25 µM). At the end of this incubation, cells were washed 4 times with ice-cold PBS. Internalization of ^59Fe was assessed by incubation for 30 min/4°C with the protease, Pronase (1 mg/mL). Cellular ^59Fe was then assessed using a γ-scintillation counter. Results are mean ±SD (3 experiments).
As for `S=C(N/N=C/c1ccc2ccccc2n1)N1CCN(c2ccccn2)CC1` [2d], the “Inhibition of 59Fe uptake compared with controls” value is “comparable inhibition of ^59Fe uptake to that of DFO”.

Staying with this assay, now noted: chelator 25 µM, 59Fe2-Tf 0.75 µM, 3 h/37°C.
As for `S=C(NN=C(c1ccccn1)c1ccccn1)N1CCOCC1` [1c], the “Internalized 59Fe uptake from 59Fe2-Tf (% of the control)” value is recorded as 3.6–11.5%.

Regarding `CN(C(=S)N/N=C/c1ccc2cccc(O)c2n1)C1CCCCC1` [3f], the “Internalized 59Fe uptake from 59Fe2-Tf (% of the control)” value was 3.6–11.5%.

Consider `S=C(N/N=C/c1cnc2ccccc2n1)N1CCOCC1` [5c], for which the “Internalized 59Fe uptake from 59Fe2-Tf (% of the control)” value is given as 3.6–11.5%.

For a further assay, the system named is HCT116 p53+/+ colon cancer cells. As to the kind of experiment: Proliferation assay (MTS, 96 h). The assay is classed as cell-based, human. The conditions noted are these: Homo sapiens, HCT-116; 96 h incubation, MTS; mean ±SD (3 experiments). The procedure: (§2) The human cancer cell types (neuroepithelioma (SK-N-MC), colon cancer (HCT116 with wild-type p53 (p53^+/+)), Burkitt's lymphoma (Raji) and cervical carcinoma (HeLa)) cells and normal human dermal fibroblasts (NHDF) were obtained from the American Type Culture Collection (ATCC, Manassas, VA, USA). HCT116 null p53 (p53^−/−) cells were obtained from the Maria Sklodowska-Curie Memorial Cancer Center and Institute of Oncology, Poland.
(§3) The SK-N-MC cells were cultured in minimum essential medium (MEM; Life Technologies, Grand Island, New York, USA) containing 10% (v/v) fetal bovine serum (FBS; Life Technologies), 1 mM sodium pyruvate (Life Technologies), 1% (v/v) non-essential amino acids (Life Technologies), 2 mM L-glutamine (Life Technologies), 100 U/mL penicillin (Life Technologies), 100 µg/mL streptomycin (Life Technologies) and 0.28 µg/mL fungizone (Bristol Myers Squibb Pharmaceuticals, Montreal, Canada). The HCT116 and NHDF cells were grown in Dulbecco's modified Eagle's medium (DMEM; Sigma-Aldrich) supplemented with 12% (v/v) heat-inactivated FBS (HCT116; Life Technologies) or 15% (v/v) FBS (NHDF; Life Technologies), 100 µg/mL of gentamicin (Polfa Warszawa S.A., Warsaw, Poland), 100 µg/mL of streptomycin (Polfa) and 100 U/mL of penicillin (Polfa). The Raji and HeLa cells were cultured in Roswell Park Memorial Institute medium (RPMI-1640; Sigma-Aldrich) with the addition of 10% (v/v) heat-inactivated FBS (Life Technologies) and the supplements described for SK-N-MC cells above. All cell lines were cultured under standard conditions at 37°C in a humidified atmosphere at 5% CO2 and were subcultured every 3–4 days as required.
(§4) The cells were seeded in 96-well plates (SK-N-MC: 1.5×10^4 cells/well; HeLa: 5.0×10^3 cells/well; Raji: 3.0×10^3 cells/well; HCT116: 3.5×10^3 cells/well; NHDF: 3.0×10^3 cells/well) 24 h prior to the addition of the novel compounds. The assays were performed using a 72 h (SK-N-MC, Raji, HeLa) or 96 h (HCT 116, NHDF) incubation period with the agents at 37°C. […] Additionally, DFO and Dp44mT were included as positive controls in all experiments as their activity is well characterized, [42], [50].
(§5) Chelator stock solutions were prepared in DMSO and diluted in media so that the final [DMSO] <0.05%. The results were expressed as a percentage of the control and the resulting IC50 values were calculated using GraphPad Prism 5 (GraphPad Software, Inc., La Jolla, CA, USA). The IC50 was defined as the concentration necessary to reduce the absorbance to 50% of the untreated control. Each individual compound was tested in triplicate in a single experiment, with each experiment being repeated three times. After incubation of HCT 116 and NHDF cells with the tested compounds, 20 µL of the CellTiter 96 Aqueous One Solution - MTS (Promega, Madison, WI, USA) solution was added to each well (with 100 µL of DMEM without phenol red) and incubated for 1 h/37°C. The optical density of the samples was analyzed at 490 nm.
What is called IC50 is the concentration needed to halve the response being measured. A lower IC50 goes with inhibition by little substance. `S=C(NN=C(c1ccccn1)c1ccccn1)N1CCOCC1` [1c] registered an IC50 of 14 ± 5 nM.

For the compound `S=C(N/N=C/c1ccc2ccccc2n1)N1CCN(c2ccccn2)CC1` [2d], the IC50 came to 390 ± 150 nM.

For `CN(C(=S)N/N=C/c1ccc2cccc(O)c2n1)C1CCCCC1` [3f], the 50% inhibitory concentration (IC50) was 3110 ± 1920 nM.

`S=C(N/N=C/c1cnc2ccccc2n1)N1CCOCC1` [5c] displayed a 50% inhibitory concentration (IC50) of 2030 ± 1240 nM.

The test system of a further assay is HCT116 p53−/− colon cancer cells. The assay can be described thus: Proliferation assay (MTS, 96 h). Conditions: Homo sapiens, HCT-116, 96 h, 96 h incubation, MTS; mean ±SD (3 experiments). It is filed as cell-based, human. As for the experimental part:
as §2, §3, §4, §5
In turn, `S=C(NN=C(c1ccccn1)c1ccccn1)N1CCOCC1` [1c] yielded a concentration for half-maximal inhibition (IC50) of 14 ± 6 nM.

As to `S=C(N/N=C/c1ccc2ccccc2n1)N1CCN(c2ccccn2)CC1` [2d], the IC50 came to 270 ± 160 nM.

Turning to `CN(C(=S)N/N=C/c1ccc2cccc(O)c2n1)C1CCCCC1` [3f], half-maximal inhibition (IC50) was put at 4350 ± 1350 nM.

`S=C(N/N=C/c1cnc2ccccc2n1)N1CCOCC1` [5c] came in with a concentration for half-maximal inhibition (IC50) of 5840 ± 1650 nM.

A further assay has as its system HeLa cervical carcinoma cells. As to the kind of experiment: Proliferation assay (crystal violet, 72 h). The assay is classed as cell-based. The conditions noted are these: Homo sapiens, 72 h incubation, mean ±SD (3 experiments). The procedure:
as §2, §3, §4, §5
(§6) MTT (3-[4,5-dimethylthiazol-2-yl]-2,5-diphenyltetrazolium bromide) was used to evaluate the anti-proliferative effects of the chelators in SK-N-MC and Raji cells. Following incubation with the investigated compounds, 10 µL of MTT (5 mg/mL in PBS; Sigma-Aldrich) was added to each well. After a 2 h (SK-N-MC) or 4 h (Raji) incubation, the plates were centrifuged, and the cells were lysed with 100 µL of 10% SDS-50% isobutanol in 0.01 M HCl (SK-N-MC) or DMSO (Raji). The absorbance was measured at 570 nm. The anti-proliferative effects of these novel agents on HeLa cells were estimated using crystal violet staining (0.5% crystal violet solution for 10 min). Finally, the wells were rinsed with water and the cells were lysed with 2% SDS. The optical density of the samples was analyzed at 595 nm.
Regarding `S=C(NN=C(c1ccccn1)c1ccccn1)N1CCOCC1` [1c], the half-maximal inhibitory concentration (IC50) was found to be 2210 ± 470 nM.

In the case of `S=C(N/N=C/c1ccc2ccccc2n1)N1CCN(c2ccccn2)CC1` [2d], the IC50 was 5140 ± 2870 nM.

In turn, `CN(C(=S)N/N=C/c1ccc2cccc(O)c2n1)C1CCCCC1` [3f] had an IC50 of 2570 ± 460 nM.

As to `S=C(N/N=C/c1cnc2ccccc2n1)N1CCOCC1` [5c], the half-maximal inhibitory concentration (IC50) was 860 ± 90 nM.

Another assay deals with normal human dermal fibroblast (NHDF) cells. The assay can be described thus: Proliferation assay (MTS, 96 h), normal mortal cells. The assay is classed as cell-based. The conditions noted are these: Homo sapiens, NHDF, 96 h, 96 h incubation, mean ±SD (3 experiments). As for the experimental part:
as §2, §3, §4, §5
For the compound `S=C(NN=C(c1ccccn1)c1ccccn1)N1CCOCC1` [1c], the concentration for half-maximal inhibition (IC50) came to 16 ± 6 nM.

`S=C(N/N=C/c1ccc2ccccc2n1)N1CCN(c2ccccn2)CC1` [2d] displayed an IC50 of 32 ± 8 nM.

`CN(C(=S)N/N=C/c1ccc2cccc(O)c2n1)C1CCCCC1` [3f] came in with an IC50 of 5360 ± 1990 nM. This IC50 is about 170-fold higher than that of the compound before.

In turn, `S=C(N/N=C/c1cnc2ccccc2n1)N1CCOCC1` [5c] had an IC50 of 11600 ± 1800 nM.

For a further assay, the system named is Raji Burkitt's lymphoma cells. As to the kind of experiment: Proliferation assay (MTT, 72 h). The assay is classed as cell-based. Conditions: Homo sapiens, 72 h incubation, mean ±SD (3 experiments). The procedure: as §2, §3, §4, §5, §6
For the compound `S=C(NN=C(c1ccccn1)c1ccccn1)N1CCOCC1` [1c], the 50% inhibitory concentration (IC50) was 3 ± 4 nM.

Compound `S=C(N/N=C/c1ccc2ccccc2n1)N1CCN(c2ccccn2)CC1` [2d] had an IC50 of 50 ± 20 nM.

The compound `CN(C(=S)N/N=C/c1ccc2cccc(O)c2n1)C1CCCCC1` [3f] came in with a concentration for half-maximal inhibition (IC50) of 10 nM.

In turn, `S=C(N/N=C/c1cnc2ccccc2n1)N1CCOCC1` [5c] displayed an IC50 of 240 ± 40 nM. Against the preceding compound, the IC50 is about 24-fold higher.

The subject of a further assay is SK-N-MC neuroepithelioma cells. The assay can be described thus: Proliferation assay (MTT, 72 h). The assay is classed as cell-based. The conditions noted are these: Homo sapiens, 72 h incubation, mean ±SD (3 experiments). The procedure:
as §2, §3, §4, §5, §6
Regarding `S=C(NN=C(c1ccccn1)c1ccccn1)N1CCOCC1` [1c], the IC50 worked out at 1210 ± 350 nM.

Take `S=C(N/N=C/c1ccc2ccccc2n1)N1CCN(c2ccccn2)CC1` [2d]: the half-maximal inhibitory concentration (IC50) was 520 ± 160 nM.

With `CN(C(=S)N/N=C/c1ccc2cccc(O)c2n1)C1CCCCC1` [3f], the IC50 is greater than 6250 nM.

`S=C(N/N=C/c1cnc2ccccc2n1)N1CCOCC1` [5c]: the IC50 turned out to be 2870 ± 1250 nM.

In another assay the test system is SK-N-MC cells. As to the kind of experiment: Mobilization of cellular 59Fe (59Fe efflux). The assay is classed as cell-based, human. Conditions: chelator 25 µM, 3 h/37°C, prelabeled SK-N-MC cells; control medium 4±1%. As for the experimental part: as §1
To examine the ability of the novel chelators to mobilize ^59Fe from SK-N-MC cells, ^59Fe efflux experiments were performed using established techniques, [51]. The monolayer of SK-N-MC cells was prelabeled for 3 h at 37°C in MEM containing ^59Fe2-Tf (0.75 µM). Cells were then washed four times with ice-cold PBS and incubated for a further 3 h at 37°C with medium alone (the control) or medium containing the chelator (25 µM). After this incubation, the overlying medium that contained the released ^59Fe was separated from the cells using a Pasteur pipette. Radioactivity was measured in both the cells and supernatant using a γ-scintillation counter (Wallac Wizard 3, Turku, Finland). In these studies, the novel ligands were compared to the previously characterized chelators, DFO and Dp44mT, as their ability to mobilize cellular ^59Fe has been extensively examined in these cells, [12], [17], [18], [50].
Figure 6 Effect of (A) series 1, (B) series 2, (C) series 3, (D) series 4, (E) series 5 and (F) series 6 chelators, relative to the controls DFO and Dp44mT, on ^59Fe mobilization from prelabeled SK-N-MC cells. Cells were incubated for 3 h/37°C with ^59Fe-transferrin (0.75 µM), washed 4 times with ice-cold PBS and then reincubated for 3 h/37°C in the presence or absence of the chelators (25 µM). Release of ^59Fe was then assessed using a γ-scintillation counter. Results are mean ±SD (3 experiments).
Turning to `S=C(NN=C(c1ccccn1)c1ccccn1)N1CCOCC1` [1c], the “59Fe mobilization (% of cellular 59Fe released)” value is given as 31–39%.

The same assay, now with this note: chelator 25 µM, SK-N-MC cells.
Consider `S=C(N/N=C/c1ccc2ccccc2n1)N1CCN(c2ccccn2)CC1` [2d], for which the “59Fe mobilization efficacy compared with controls” value is on record as “comparable release of ^59Fe relative to DFO”.

Source of the values: paper PMC4199632, “Exploring the Anti-Cancer Activity of Novel Thiosemicarbazones Generated through the Combination of Retro-Fragments: Dissection of Critical Structure-Activity Relationships” (PLoS ONE, 2014).
